Assay results from patent publication US6620828B2, “Thiazole compounds and pharmaceutical compositions for inhibiting protein kinases and methods for their use” (Agouron Pharmaceuticals, Inc., priority 1999, dated 2003).
Values joined by “and” are separate entries in the source; they are usually repeats but may differ in a detail not shown here. Identical values can stand only once. Like-named read-outs stand apart in the source and are kept apart here.

Key:
[1] = target: T1, phosphorylated VEGF-R2Δ50 (Homo sapiens, UniProt P35968, DEL940-989/E990V); assay: VEGF-R2 ELISA assay; type: biochemical; conditions: * determined with ELISA assay, read-out: FLVK-P Ki
T1 construct: VEGF-R2Δ50 contains residues 806-939 and 990-1171; made in house; host or cells: baculovirus/insect cells
Text: VEGF-R2 Construct for Assay: This construct determines the ability of a test compound to inhibit tyrosine kinase activity. A construct (VEGF-R2Δ50) of the cytosolic domain of human vascular endothelial growth factor receptor 2 (VEGF-R2) lacking the 50 central residues of the 68 residues of the kinase insert domain was expressed in a baculovirus/insect cell system. Of the 1356 residues of full-length VEGF-R2, VEGF-R2Δ50 contains residues 806-939 and 990-1171, and also one point mutation (E990V) within the kinase insert domain relative to wild-type VEGF-R2. Autophosphorylation of the purified construct was performed by incubation of the enzyme at a concentration of 4 μM in the presence of 3 mM ATP and 40 mM MgCl2 in 100 mM Hepes, pH 7.5, containing 5% glycerol and 5 mM DTT, at 4° C. for 2 h. […] See Parast et al., Biochemistry, 37, 16788-16801 (1998).
Formation of phosphogastrin was monitored using biotinylated gastrin peptide (1-17) as substrate. Biotinylated phosphogastrin was immobilized using streptavidin coated 96-well microtiter plates followed by detection using anti-phosphotyrosine-antibody conjugated to horseradish peroxidase. The activity of horseradish peroxidase was monitored using 2,2′-azino-di-[3-ethylbenzathiazoline sulfonate(6)]diammonium salt (ABTS). Typical assay solutions contained: 2 μM biotinylated gastrin peptide; 5 mM DTT; 20 μM ATP; 26 mM MgCl2; and 2 mM MnCl2 in 200 mM Hepes, pH 7.5. The assay was initiated with 0.8 nM of phosphorylated VEGF-R2Δ50. Horseradish peroxidase activity was assayed using ABTS, 10 mM. The horseradish peroxidase reaction was quenched by addition of acid (H2SO4), followed by absorbance reading at 405 nm. Ki values were determined by measuring enzyme activity in the presence of varying concentrations of test compounds. The data were analyzed using Enzyme Kinetic and Kaleidagraph software.

CDK2/Cyclin A complex = CDK2/Cyclin A complex (Homo sapiens, UniProt P24941); assay: CDK2/Cyclin A assay; type: biochemical; conditions: Table 2
Summary of the method: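 Radiometric assay: 150 nM CDK2/cyclin A (insect-cell CDK2, truncated cyclin A) phosphorylates His-tagged Rb fragment (residues 386-928) with 25 μM ATP plus [32P]ATP, pH 7.4 HEPES, 2% DMSO, 30 °C for 20 min. Filter-captured product counted by phosphorimager; apparent Ki from competitive or tight-binding inhibition fits.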

CDK4/Cyclin D3 complex = target: T2, CDK4/Cyclin D3 complex (Homo sapiens, UniProt P11802); assay: CDK4/Cyclin D assay; type: biochemical; conditions: Table 2
T2 construct: made in house; host or cells: insect cells co-infected with baculovirus vectors
Summary of the method: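 Insect-cell-expressed CDK4/cyclin D3 (50 nM) phosphorylating His-tagged Rb fragment (residues 386-928) with 25 μM [^32P]ATP in HEPES pH 7.4, MgCl2, 2% DMSO; 20 min at 30 °C, EDTA stop. Filter-captured 32P by phosphorimager; apparent Ki from competitive or tight-binding inhibition fits.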

CHK1 = target: T3, CHK1 (Homo sapiens, UniProt O14757); assay: CHK1 high-throughput screening; type: biochemical; conditions: for inhibition at 20 µM: read-out: % inhibition @ 20 μM, Table 4, repeated entries per example
T3 sequence (O14757 1-476): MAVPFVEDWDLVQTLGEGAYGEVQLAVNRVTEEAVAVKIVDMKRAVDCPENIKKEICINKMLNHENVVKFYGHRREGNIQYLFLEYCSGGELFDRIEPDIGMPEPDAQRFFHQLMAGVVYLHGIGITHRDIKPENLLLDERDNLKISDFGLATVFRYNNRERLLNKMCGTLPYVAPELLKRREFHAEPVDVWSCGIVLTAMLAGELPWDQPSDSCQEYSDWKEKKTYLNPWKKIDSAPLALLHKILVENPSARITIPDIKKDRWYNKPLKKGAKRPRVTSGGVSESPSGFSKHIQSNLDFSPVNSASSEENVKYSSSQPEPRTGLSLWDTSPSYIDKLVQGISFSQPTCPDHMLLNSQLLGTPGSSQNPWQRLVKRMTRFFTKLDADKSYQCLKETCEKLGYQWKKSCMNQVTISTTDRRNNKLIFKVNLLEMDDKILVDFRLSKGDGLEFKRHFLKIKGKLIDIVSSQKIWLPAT

[2] = target: T4, phosphorylated VEGF-R2Δ50 (FLVK-P) (Homo sapiens, UniProt P35968, DEL940-989/E990V); assay: VEGF-R2 coupled spectrophotometric (FLVK-P) assay; type: biochemical; conditions: spectrophotometric assay
T4 construct: VEGF-R2Δ50 contains residues 806-939 and 990-1171; made in house; host or cells: baculovirus/insect cells
Summary of the method: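 Baculovirus-expressed human VEGF-R2Δ50 (residues 806-939/990-1171, E990V) was autophosphorylated with 3 mM ATP, 40 mM MgCl2 for 2 h at 4° C. ADP formation was coupled via PK/LDH to NADH oxidation, read at 340 nm, with 5.1 mM poly(E4Y1), 1 mM ATP, 25 mM MgCl2, Hepes pH 7.5. Ki came from activity across compound concentrations.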

[3] = tested on: human umbilical vein endothelial cells (HUVEC); assay: HUVEC proliferation assay; type: cell-based; conditions: Homo sapiens, HUVEC, Table 1
Summary of the method: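 Readout was MTT dye reduction (A595) after 72 h of stimulation with VEGF at 6 ng/ml final. Compound, in 0.1% DMSO final, was added 1 h before VEGF to HUVEC starved 24 h in 1% FBS. % inhibition was scaled between VEGF-alone and unstimulated wells; IC50 was fitted from triplicate dose curves.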

[4] = tested on: lung cancer cells (line MV522); assay: Cancer cell proliferation (MV522) assay; type: cell-based; conditions: MV522, Table 1
Description: Cancer Cell Proliferation (MV522) Assay
The protocol for assessing cellular proliferation in cancer cells is similar to that used for assessments in HUVEC cells. Two thousand lung cancer cells (line MV522, acquired from American Tissue Cultural Collection) were seeded in growth media (RPMI1640 medium supplemented with 2 mM glutamine and 10% FBS). Cells are allowed to attach for 1 day prior to addition of test agents and/or vehicles. Cells are treated simultaneously with the same test agents used in the HUVEC assay. Cellular proliferation is quantified by MTT dye reduction assay 72 hours after exposure to test agents. The total length of the assay is 4 days vs. 5 for HUVEC cells because MV522 cells are not exposed to starvation medium.

T1 sequence (P35968 with tags, fused parts or gaps DEL940-989/E990V limits assumed): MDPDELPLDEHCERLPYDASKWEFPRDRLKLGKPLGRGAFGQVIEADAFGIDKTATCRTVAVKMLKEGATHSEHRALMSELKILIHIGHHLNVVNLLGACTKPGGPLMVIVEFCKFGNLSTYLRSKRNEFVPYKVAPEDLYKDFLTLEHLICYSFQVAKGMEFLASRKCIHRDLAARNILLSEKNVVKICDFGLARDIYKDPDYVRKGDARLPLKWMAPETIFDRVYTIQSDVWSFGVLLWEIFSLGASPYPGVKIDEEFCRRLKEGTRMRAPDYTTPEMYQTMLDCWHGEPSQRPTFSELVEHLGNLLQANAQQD
T2 sequence (P11802 whole entry): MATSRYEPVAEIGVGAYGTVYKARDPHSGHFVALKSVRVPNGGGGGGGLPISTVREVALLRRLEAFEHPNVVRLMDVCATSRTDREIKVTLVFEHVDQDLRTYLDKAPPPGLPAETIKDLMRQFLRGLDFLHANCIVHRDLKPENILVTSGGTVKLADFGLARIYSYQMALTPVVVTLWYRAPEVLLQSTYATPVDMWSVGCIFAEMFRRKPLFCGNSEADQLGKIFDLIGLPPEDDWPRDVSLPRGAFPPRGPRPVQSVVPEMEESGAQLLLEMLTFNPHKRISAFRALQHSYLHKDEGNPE
T2 sequence (P30281 whole entry partner): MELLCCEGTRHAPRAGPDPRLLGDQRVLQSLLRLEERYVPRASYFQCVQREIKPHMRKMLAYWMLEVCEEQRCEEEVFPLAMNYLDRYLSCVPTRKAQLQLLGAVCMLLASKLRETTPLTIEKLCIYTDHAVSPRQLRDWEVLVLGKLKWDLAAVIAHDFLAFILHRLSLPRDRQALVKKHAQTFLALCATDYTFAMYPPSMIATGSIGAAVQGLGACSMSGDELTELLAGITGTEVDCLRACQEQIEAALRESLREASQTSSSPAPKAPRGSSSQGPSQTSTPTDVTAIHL
T4 sequence (P35968 with tags, fused parts or gaps DEL940-989/E990V limits assumed): as the sequence (P35968 with tags, fused parts or gaps DEL940-989/E990V limits assumed) above

Ki ([1]; Table 2)	Ki ([1]; Table 1)	Structure (SMILES)	other results
1250 nM	–	COc1cc(Nc2nc(N)c(C3=NC(c4ccccc4Br)CO3)s2)cc(OC)c1OC (racemic) [I(13), (R/S)-5-[4-(2-Bromo-phenyl)-4,5-dihydro-oxazol-2-yl]-N^2-(3,4,5-trimethoxy-phenyl)-thiazole-2,4-diamine]	–
1170 nM	–	COc1cc(Nc2nc(N)c(C3=NC(c4cccc(Br)c4)CO3)s2)cc(OC)c1OC (racemic) [I(14), (R/S)-5-[4-(3-Bromo-phenyl)-4,5-dihydro-oxazol-2-yl]-N^2-(3,4,5-trimethoxy-phenyl)-thiazole-2,4-diamine]	–
73000 nM	–	COc1cc(Nc2nc(N)c(C3=NC(C)CO3)s2)cc(OC)c1OC (racemic) [I(15), (R/S)-5-(4-Methyl-4,5-dihydro-oxazol-2-yl)-N^2-(3,4,5-trimethoxy-phenyl)-thiazole-2,4-diamine]	–
35000 nM	–	COc1cc(Nc2nc(N)c(C3=NC(C(C)C)CO3)s2)cc(OC)c1OC (racemic) [I(17), (R/S)-5-(4-Isopropyl-4,5-dihydro-oxazol-2-yl)-N^2-(3,4,5-trimethoxy-phenyl)-thiazole-2,4-diamine]	–
34000 nM	–	COc1cc(Nc2nc(N)c(C3=NCC(C)O3)s2)cc(OC)c1OC (racemic) [I(19), (R/S)-5-(5-Methyl-4,5-dihydro-oxazol-2-yl)-N^2-(3,4,5-trimethoxy-phenyl)-thiazole-2,4-diamine]	–
178000 nM	–	COc1cc(Nc2nc(N)c(C3=N[C@@H](C)C(c4ccccc4)O3)s2)cc(OC)c1OC (stereo in doubt) [I(16), 5-(4-Methyl-5-phenyl-4,5-dihydro-oxazol-2-yl)-N^2-(3,4,5-trimethoxy-phenyl)-thiazole-2,4-diamine]	–
–	–	CNc1nc(N)c(-c2nc(-c3cccc(O)c3)cs2)s1 [A(30), 3-(4′-Amino-2′-methylamino-[2,5′]bithiazolyl-4-yl)-phenol]	Ki (CDK2/Cyclin A complex): 4800 nM; Ki (CDK4/Cyclin D3 complex): 22000 nM; inhibition at 20 µM (CHK1): 3.4%; Ki ([2]; Table 2): 110 nM
–	–	Nc1nc(Nc2cccc(C(=O)O)c2)sc1-c1nc(-c2cccc(NC(=O)c3ccccc3)c2)cs1 [A(50), 3-[4′-Amino-4-(3-benzoylamino-phenyl)-[2,5′]bithiazolyl-2′-ylamino]-benzoic acid]	inhibition at 20 µM (CHK1): 30.1%; Ki ([2]; Table 1): 8.9 nM; IC50 [3]: > 700 nM; IC50 [4]: > 10000 nM
–	–	Nc1nc(Nc2ccc(S(N)(=O)=O)cc2)sc1-c1nc(-c2ccc(Cl)c(O)c2)cs1 [A(69), 4-[4′-Amino-4-(4-chloro-3-hydroxy-phenyl)-[2,5′]bithiazolyl-2′-ylamino]-benzenesulfonamide]	Ki (CDK2/Cyclin A complex): 4000 nM; Ki (CDK4/Cyclin D3 complex): 7200 nM; % inhibition @ 20 μM (CHK1; Table 4, repeated entries per example, 20 µM): 2.7% and 3.8%; inhibition at 20 µM (CHK1): 4.8%
–	–	Nc1nc(Nc2ccc(S(N)(=O)=O)cc2)sc1-c1nc(-c2ccc(-c3ccccc3)cc2)cs1 [A(70), 4-(4′-Amino-4-biphenyl-4-yl-[2,5′]bithiazolyl-2′-ylamino)-benzenesulfonamide]	inhibition at 100 µM (CDK4/Cyclin D3 complex; at 100 (printed 100 or 100 μM)): < 0%; inhibition at 20 µM (CHK1): 3.8%
–	63 nM	COc1cc(Nc2nc(N)c(-c3nc(-c4cccc(NC(=O)Cc5ccccc5)c4)cs3)s2)cc(OC)c1OC [D(5), N-{3-[4′-Amino-2′-(3,4,5-trimethoxy-phenylamino)-[2,5′]bithiazolyl-4-yl]-phenyl}-2-phenyl-acetamide]	–
–	25 nM	COC(=O)Nc1cccc(-c2csc(-c3sc(Nc4cc(OC)c(OC)c(OC)c4)nc3N)n2)c1 [D(6), {3-[4′-Amino-2′-(3,4,5-trimethoxy-phenylamino)-[2,5′]bithiazolyl-4-yl]-phenyl}-carbamic acid methyl ester]	–
–	120 nM	CNC(=O)Nc1cccc(-c2csc(-c3sc(Nc4cc(OC)c(OC)c(OC)c4)nc3N)n2)c1 [D(7), 1-{3-[4′-Amino-2′-(3,4,5-trimethoxy-phenylamino)-[2,5′]bithiazolyl-4-yl]-phenyl}-3-methyl-urea]	–
–	29 nM	CCC(=O)Nc1cccc(-c2csc(-c3sc(Nc4cc(OC)c(OC)c(OC)c4)nc3N)n2)c1 [D(8), N-{3-[4′-Amino-2′-(3,4,5-trimethoxy-phenylamino)-[2,5′]bithiazolyl-4-yl]-phenyl}-propionamide]	–
–	47 nM	COc1cc(Nc2nc(N)c(-c3nc(-c4cccc(NC(=O)CC(C)C)c4)cs3)s2)cc(OC)c1OC [D(9)]	–
–	56 nM	COc1cc(Nc2nc(N)c(-c3nc(-c4cccc(NC(=O)OC(C)C)c4)cs3)s2)cc(OC)c1OC [D(10), {3-[4′-Amino-2′-(3,4,5-trimethoxy-phenylamino)-[2,5′]bithiazolyl-4-yl]-phenyl}-carbamic acid isopropyl ester]	–
–	120 nM	COc1cc(Nc2nc(N)c(-c3nc(-c4cccc(NC(=O)C(F)(F)F)c4)cs3)s2)cc(OC)c1OC [D(13), N-{^3-[4′-Amino-2′-(3,4,5-trimethoxy-phenylamino)-[2,5′]bithiazolyl-4-yl]-phenyl}-2,2,2-trifluoro-acetamide]	–
–	120 nM	COc1cc(Nc2nc(N)c(-c3nc(-c4cccc(NC(=O)C(F)F)c4)cs3)s2)cc(OC)c1OC [D(14), N-{3-[4′-Amino-2′-(3,4,5-trimethoxy-phenylamino)-[2,5′]bithiazolyl-4-yl]-phenyl}-2,2-difluoro-acetamide]	–
–	240 nM	COc1cc(Nc2nc(N)c(-c3nc(-c4cccc(NC(=O)COc5ccccc5)c4)cs3)s2)cc(OC)c1OC [D(15), N-{3-[4′-Amino-2′-(3,4,5-trimethoxy-phenylamino)-[2,5′]bithiazolyl-4-yl]-phenyl}-2-phenoxy-acetamide]	–

Structure (SMILES)	Ki ([1]; Table 2)	Ki ([1]; Table 1)	other results
COc1cc(Nc2nc(N)c(-c3nc(-c4cccc(NC(=O)Oc5cccc6ccccc56)c4)cs3)s2)cc(OC)c1OC [D(22), {3-[4′-Amino-2′-(3,4,5-trimethoxy-phenylamino)-[2,5′]bithiazolyl-4-yl]-phenyl}-carbamic acid naphthalen-1-yl ester]	–	89 nM	–
